Consider 5 compounds from publication PMC8843100, “Development of newly synthesised quinazolinone-based CDK2 inhibitors with potent efficacy against melanoma” (Journal of Enzyme Inhibition and Medicinal Chemistry, 2022).

Holding throughout (test): NCI-60 single dose screen, sulforhodamine B
Common to all, as to format: cell-based, human

The test system of one experiment is A498. The conditions noted are these: Renal cancer A498; single dose 10^−5 M. In a few lines:
(§1)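 Each compound, in DMSO, was applied once at 10 µM to cells pre-grown for a day; after a further 2-day incubation the cells were fixed and stained with sulforhodamine B.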

In a further experiment the test system is A549/ATCC. The conditions noted are these: Non-small cell lung cancer A549/ATCC; single dose 10^−5 M. Summed up: as §1
The subject of another experiment is BT-549. The conditions noted are these: Breast cancer BT-549; single dose 10^−5 M. In a few lines: as §1
The subject of another experiment is CAKI-1. The conditions noted are these: Renal cancer CAKI-1; single dose 10^−5 M. In a few lines: as §1
The test system of a further experiment is HCT-116. Particulars: Colon cancer HCT-116; single dose 10^−5 M. Summed up:
as §1

The test system of a further experiment is HCT-15. Particulars: Colon cancer HCT-15; single dose 10^−5 M. In a few lines: as §1
Another experiment deals with HOP-92. Particulars: Non-small cell lung cancer HOP-92; single dose 10^−5 M. Summed up: as §1
The next experiment has as its system MALME-3M. Particulars: Melanoma MALME-3M; single dose 10^−5 M. In a few lines: as §1
The next experiment relates to MDA-MB-231/ATCC. Particulars: Breast cancer MDA-MB-231/ATCC; single dose 10^−5 M. In a few lines: as §1
A further experiment has as its system NCI-H522. The conditions noted are these: Non-small cell lung cancer NCI-H522; single dose 10^−5 M. Summed up: as §1
The test system of the next experiment is OVCAR-4. The conditions noted are these: Ovarian cancer OVCAR-4; single dose 10^−5 M. Summed up:
as §1

In another experiment the test system is OVCAR-5. Particulars: Ovarian cancer OVCAR-5; single dose 10^−5 M. In a few lines:
as §1

The test system of another experiment is PC-3. The conditions noted are these: Prostate cancer PC-3; single dose 10^−5 M. In a few lines:
as §1

The subject of the next experiment is SF-268. The conditions noted are these: CNS cancer SF-268; single dose 10^−5 M. In a few lines:
as §1

For a further experiment, the system named is SF-295. Particulars: CNS cancer SF-295; single dose 10^−5 M. Summed up:
as §1

The next experiment relates to SF-539. Particulars: CNS cancer SF-539; single dose 10^−5 M. Summed up:
as §1

The test system of another experiment is SK-MEL-28. Particulars: Melanoma SK-MEL-28; single dose 10^−5 M. Summed up:
as §1

In another experiment the test system is SK-MEL-5. Particulars: Melanoma SK-MEL-5; single dose 10^−5 M. In a few lines: as §1
For the next experiment, the system named is SNB-75. The conditions noted are these: CNS cancer SNB-75; single dose 10^−5 M. Summed up: as §1
The test system of another experiment is SR. The conditions noted are these: Leukaemia SR; single dose 10^−5 M. In a few lines:
as §1

The subject of another experiment is T-47D. Particulars: Breast cancer T-47D; single dose 10^−5 M. Summed up: as §1
A further experiment concerns TK-10. The conditions noted are these: Renal cancer TK-10; single dose 10^−5 M. In a few lines:
as §1

For another experiment, the system named is UACC-257. The conditions noted are these: Melanoma UACC-257; single dose 10^−5 M. Summed up:
as §1

In a further experiment the test system is UACC-62. Particulars: Melanoma UACC-62; single dose 10^−5 M. In a few lines:
as §1

In the case of `COc1cc(C=Nn2c(COc3ccccc3)nc3ccccc3c2=O)ccc1O` [Compound 6a, 3-((4-hydroxy-3-methoxybenzylidene)amino)-2-(phenoxymethyl)quinazolin-4(3H)-one], the “GI% at 10^−5 M” value in the experiment on A498, in the experiment on A549/ATCC, in the experiment with BT-549, in the experiment with CAKI-1, in the experiment with HCT-116 and in the experiment with HCT-15 was “– (– means GI < 10%)” throughout. In addition, the “GI% at 10^−5 M” value in the experiment with HOP-92 is listed as “– (– means GI < 10%)”; in the experiment on MALME-3M, “– (– means GI < 10%)”; in the experiment on MDA-MB-231/ATCC it was 10.92%; with NCI-H522 it was 16.82%; with OVCAR-4 it was “– (– means GI < 10%)”; in the experiment with OVCAR-5, “– (– means GI < 10%)”. Moreover, the “GI% at 10^−5 M” value in the experiment on PC-3, in the experiment with SF-268, in the experiment on SF-295, in the experiment on SF-539, in the experiment with SK-MEL-28 and in the experiment with SK-MEL-5 was “– (– means GI < 10%)” in each case. The “GI% at 10^−5 M” value is recorded as 13.12% in the experiment on SNB-75; “– (– means GI < 10%)” with SR; “– (– means GI < 10%)” with T-47D; “– (– means GI < 10%)” in the experiment with TK-10; “– (– means GI < 10%)” in the experiment on UACC-257; “– (– means GI < 10%)” with UACC-62.

Turning to `Cc1ccc(S(=O)(=O)Nn2c(COc3ccccc3)nc3ccccc3c2=O)cc1` [Compound 5b, 4-methyl-N-(4-oxo-2-(phenoxymethyl)quinazolin-3(4H)-yl)benzenesulfonamide], the “GI% at 10^−5 M” value with A498, in the experiment on A549/ATCC, in the experiment with BT-549, in the experiment with CAKI-1, in the experiment with HCT-116 and with HCT-15 was “– (– means GI < 10%)” in each case. For the same compound, the “GI% at 10^−5 M” value in the experiment on HOP-92 is recorded as 10.82%; in the experiment on MALME-3M, “– (– means GI < 10%)”; in the experiment with MDA-MB-231/ATCC it was 10.94%; in the experiment with NCI-H522 it was “– (– means GI < 10%)”; with OVCAR-4, “– (– means GI < 10%)”; with OVCAR-5, “– (– means GI < 10%)”. Also, the “GI% at 10^−5 M” value in the experiment with PC-3, in the experiment with SF-268, in the experiment on SF-295, in the experiment with SF-539, in the experiment with SK-MEL-28 and in the experiment with SK-MEL-5 was “– (– means GI < 10%)” throughout. Also, the “GI% at 10^−5 M” value in the experiment with SNB-75 is 33.03%; in the experiment with SR, “– (– means GI < 10%)”; with T-47D, “– (– means GI < 10%)”; in the experiment on TK-10 it was 23.64%; in the experiment on UACC-257, “– (– means GI < 10%)”; with UACC-62, “– (– means GI < 10%)”.

For `O=C(CNn1c(COc2ccccc2)nc2ccccc2c1=O)Nc1ccccc1` [Compound 4a, 2-((4-oxo-2-(phenoxymethyl)quinazolin-3(4H)-yl)amino)-N-phenylacetamide], the “GI% at 10^−5 M” value is listed as “– (– means GI < 10%)” in the experiment with A498; “– (– means GI < 10%)” in the experiment with A549/ATCC; “– (– means GI < 10%)” with BT-549; 12.78% in the experiment on CAKI-1; “– (– means GI < 10%)” in the experiment on HCT-116; “– (– means GI < 10%)” in the experiment with HCT-15. For the same compound, the “GI% at 10^−5 M” value in the experiment with HOP-92 is reported as 15.94%; in the experiment on MALME-3M, “– (– means GI < 10%)”; in the experiment with MDA-MB-231/ATCC, 18.56%; with NCI-H522, 13.74%; with OVCAR-4, “– (– means GI < 10%)”; in the experiment with OVCAR-5, “– (– means GI < 10%)”. In addition, the “GI% at 10^−5 M” value with PC-3 is 10.95%; in the experiment with SF-268 it was “– (– means GI < 10%)”; in the experiment with SF-295 it was “– (– means GI < 10%)”; in the experiment with SF-539 it was “– (– means GI < 10%)”; in the experiment with SK-MEL-28, “– (– means GI < 10%)”; in the experiment on SK-MEL-5, “– (– means GI < 10%)”. Further, the “GI% at 10^−5 M” value was 62.34% in the experiment on SNB-75; “– (– means GI < 10%)” in the experiment on SR; “– (– means GI < 10%)” in the experiment with T-47D; “– (– means GI < 10%)” with TK-10; “– (– means GI < 10%)” with UACC-257; “– (– means GI < 10%)” in the experiment with UACC-62.

For `COc1ccc(NC(=O)CNn2c(COc3ccccc3)nc3ccccc3c2=O)cc1` [Compound 4b, N-(4-methoxyphenyl)-2-((4-oxo-2-(phenoxymethyl)quinazolin-3(4H)-yl)amino)acetamide], the “GI% at 10^−5 M” value in the experiment on A498 is recorded as 34.65%; in the experiment on A549/ATCC, “– (– means GI < 10%)”; in the experiment with BT-549 it was “– (– means GI < 10%)”; in the experiment with CAKI-1, 21.63%; in the experiment on HCT-116, “– (– means GI < 10%)”; in the experiment with HCT-15, “– (– means GI < 10%)”. Besides, the “GI% at 10^−5 M” value with HOP-92 is on record as 16.34%; with MALME-3M, “– (– means GI < 10%)”; with MDA-MB-231/ATCC it was 11.38%; with NCI-H522, 12.54%; in the experiment on OVCAR-4 it was “– (– means GI < 10%)”; in the experiment on OVCAR-5, “– (– means GI < 10%)”. Also, the “GI% at 10^−5 M” value with PC-3 was 9.76%; in the experiment on SF-268 it was “– (– means GI < 10%)”; with SF-295 it was “– (– means GI < 10%)”; with SF-539, “– (– means GI < 10%)”; in the experiment with SK-MEL-28, “– (– means GI < 10%)”; in the experiment on SK-MEL-5, “– (– means GI < 10%)”. The “GI% at 10^−5 M” value in the experiment with SNB-75 was 21.9%; in the experiment with SR, “– (– means GI < 10%)”; with T-47D, “– (– means GI < 10%)”; with TK-10, “– (– means GI < 10%)”; with UACC-257, “– (– means GI < 10%)”; with UACC-62, “– (– means GI < 10%)”.

In the case of `O=c1c2ccccc2nc(COc2ccccc2)n1NS(=O)(=O)c1ccc(Cl)cc1` [Compound 5c, 4-chloro-N-(4-oxo-2-(phenoxymethyl)quinazolin-3(4H)-yl)benzenesulfonamide], the “GI% at 10^−5 M” value in the experiment with A498 is reported as 36.68%; in the experiment on A549/ATCC it was 14.05%; in the experiment on BT-549, “– (– means GI < 10%)”; in the experiment on CAKI-1 it was 26.93%; in the experiment with HCT-116, 16.40%; in the experiment on HCT-15, 45.60%. Moreover, the “GI% at 10^−5 M” value is given as 17.90% in the experiment with MALME-3M; 32.6% with MDA-MB-231/ATCC; 30.63% with NCI-H522; “– (– means GI < 10%)” in the experiment with OVCAR-4; “– (– means GI < 10%)” with OVCAR-5; 17.26% in the experiment on PC-3. Further, the “GI% at 10^−5 M” value in the experiment with SF-268 is on record as 11.40%; in the experiment on SF-295, “– (– means GI < 10%)”; in the experiment on SF-539, 13.14%; with SK-MEL-28, 12.91%; in the experiment with SK-MEL-5, “– (– means GI < 10%)”; in the experiment with SNB-75, 63.09%. Further, the “GI% at 10^−5 M” value in the experiment with SR is on record as 42.42%; with T-47D it was 25.18%; with TK-10 it was “– (– means GI < 10%)”; in the experiment with UACC-257, “– (– means GI < 10%)”; in the experiment with UACC-62, 23.06%.
